Test results: PubChem BioAssay AID624076 (Broad Institute, 2012)
Calls of active or inactive are those of the source. How the calls were made is not given here.

Experiment: PubChem AID 624076
Conditions: Carna kinase panel, IMAP FP / mobility shift, at 10 µM, hits give high values

Cc1cnc(-c2cnc(NCCNc3ccc(C#N)cn3)nc2-c2ccc(Cl)cc2Cl)[nH]1
inhibition (ABL(E255K)): -2.21% (inactive) | inhibition (ABL(T315I)): 3.27% (inactive) | inhibition (AKT2): 0.832% (inactive) | inhibition (AKT3): 0% (inactive) | inhibition (ALK(R1275Q)): -2.15% (inactive) | inhibition (ARG): -1.99% (inactive) | inhibition (AXL): 6.91% (inactive) | inhibition (AurB): 2.87% (inactive) | inhibition (AurC): 6.65% (inactive) | inhibition (BMPR1A): -9.7% (inactive) | inhibition (BRAF(V600E)): 14% (inactive) | inhibition (BRAF): 53.8% | inhibition (BRK): -3.52% (inactive) | inhibition (BRSK1): 10.2% (inactive) | inhibition (BTK): -3.98% (inactive) | inhibition (CDC7): -7.36% (inactive) | inhibition (CDK3): 42.4% (inactive) | inhibition (CDK5): 51.2% | inhibition (CDK9): 88.1% | inhibition (CHK2): 4.54% (inactive) | inhibition (CK1e): 10.4% (inactive) | inhibition (CK1g1): 85.8% | inhibition (CK2a2/b): 48.7% (inactive) | inhibition (CK1d): 23.2% (inactive) | inhibition (CLK1): 70.5% | inhibition (CLK2): 47.6% (inactive) | inhibition (COT): -1.49% (inactive) | inhibition (CRIK): 1.36% (inactive) | inhibition (CTK): -2.12% (inactive) | inhibition (CaMK2b): 0.457% (inactive) | inhibition (CaMK4): 6.27% (inactive) | inhibition (CaMK1d): 2.64% (inactive) | inhibition (DAPK1): 0.121% (inactive) | inhibition (DCAMKL2): 4.09% (inactive) | inhibition (DLK): -12.2% (inactive) | inhibition (DYRK1B): 20.8% (inactive) | inhibition (DYRK2): 17.2% (inactive) | inhibition (EGFR(L861Q)): 1.1% (inactive) | inhibition (EML4-ALK): -2.55% (inactive) | inhibition (EPHA3): -5.65% (inactive) | inhibition (EPHA5): -4.24% (inactive) | inhibition (EPHA8): -7.66% (inactive) | inhibition (EPHB1): 0.223% (inactive) | inhibition (EPHB4): -0.865% (inactive) | inhibition (FGFR1): 13.1% (inactive) | inhibition (FGFR3(K650E)): 12.5% (inactive) | inhibition (FGFR3(K650M)): 11.8% (inactive) | inhibition (FGFR4(N535K)): 3.65% (inactive) | inhibition (FGFR4(V550L)): 7.1% (inactive) | inhibition (FGFR4): 1.13% (inactive) | inhibition (FLT4): 40.4% (inactive) | inhibition (FMS): 9.78% (inactive) | inhibition (GSK3a): 99.9% | inhibition (HER4): -8.68% (inactive) | inhibition (HIPK1): 15.1% (inactive) | inhibition (HIPK3): 11% (inactive) | inhibition (Haspin): 9.76% (inactive) | inhibition (IGF1R): 0.373% (inactive) | inhibition (IKKb): 7.11% (inactive) | inhibition (IRAK4): -0.123% (inactive) | inhibition (IRR): 2.61% (inactive) | inhibition (JAK2): 5.28% (inactive) | inhibition (JAK3): 18.1% (inactive) | inhibition (JNK1): 11.5% (inactive) | inhibition (JNK2): 18.8% (inactive) | inhibition (JNK3): 16.9% (inactive) | inhibition (KIT(T670I)): 2.37% (inactive) | inhibition (KIT(V560G)): 8.71% (inactive) | inhibition (KIT): 5.43% (inactive) | inhibition (LATS2): 9.73% (inactive) | inhibition (LKB1): 16.6% (inactive) | inhibition (LOK): 4.96% (inactive) | inhibition (LTK): -0.743% (inactive) | inhibition (LYNa): 0.071% (inactive) | inhibition (MAP2K5): -7.9% (inactive) | inhibition (MAP3K1): 8.06% (inactive) | inhibition (MAP3K3): -21.6% (inactive) | inhibition (MAP4K2): 12.9% (inactive) | inhibition (MARK2): 13.3% (inactive) | inhibition (MARK4): 15.4% (inactive) | inhibition (MELK): 53.5% | inhibition (MER): 3.47% (inactive) | inhibition (MGC42105): 6.7% (inactive) | inhibition (MINK): 4.57% (inactive) | inhibition (MLK1): 51.4% | inhibition (MLK2): 0.179% (inactive) | inhibition (MOS): 5.27% (inactive) | inhibition (MSK1): 7.16% (inactive) | inhibition (MST2): 5.83% (inactive) | inhibition (MST4): 8.12% (inactive) | inhibition (NDR1): 2.42% (inactive) | inhibition (NEK1): 15.9% (inactive) | inhibition (NEK2): 8.33% (inactive) | inhibition (NEK6): 2.28% (inactive) | inhibition (NEK7): -3.45% (inactive) | inhibition (PAK3): 14.2% (inactive) | inhibition (PAK4): -9.87% (inactive) | inhibition (PAK5): 7.25% (inactive) | inhibition (PASK): 8.83% (inactive) | inhibition (PBK): 3.01% (inactive) | inhibition (PDGFRa(V561D)): 27% (inactive) | inhibition (PEK): 23.7% (inactive) | inhibition (PGK): -2.42% (inactive) | inhibition (PHKG1): 6.01% (inactive) | inhibition (PIM3): -2.3% (inactive) | inhibition (PKACg): 2.06% (inactive) | inhibition (PKCb2): 10.5% (inactive) | inhibition (PKCd): 15.8% (inactive) | inhibition (PKCg): 8.43% (inactive) | inhibition (PKD1): 24.8% (inactive) | inhibition (PKD2): 19.5% (inactive) | inhibition (PKD3): 40.8% (inactive) | inhibition (PKN1): 14.8% (inactive) | inhibition (PLK1): 59.2% | inhibition (PLK4): -13.5% (inactive) | inhibition (PRKX): 3.31% (inactive) | inhibition (RET(S891A)): 32.1% (inactive) | inhibition (RET(Y791F)): 12.8% (inactive) | inhibition (ROCK1): 0.774% (inactive) | inhibition (ROCK2): 1.96% (inactive) | inhibition (ROS): 11.2% (inactive) | inhibition (RSK1): 19.3% (inactive) | inhibition (RSK2): 19.9% (inactive) | inhibition (RSK4): 30.6% (inactive) | inhibition (SGK3): 0.522% (inactive) | inhibition (SIK): 2.55% (inactive) | inhibition (SLK): 43.3% (inactive) | inhibition (SRC): 2.22% (inactive) | inhibition (SRM): -1.3% (inactive) | inhibition (SRPK1): 17.3% (inactive) | inhibition (SYK): 1.08% (inactive) | inhibition (TAK1-TAB1): 34.1% (inactive) | inhibition (TIE2): 4.06% (inactive) | inhibition (TNK1): 27.1% (inactive) | inhibition (TRKA): 9.49% (inactive) | inhibition (TSSK3): -3.5% (inactive) | inhibition (TTK): -10.8% (inactive) | inhibition (TYK2): -0.177% (inactive) | inhibition (WNK2): 3.23% (inactive) | inhibition (p38d): 2.62% (inactive)
